US20110053770A1, “SUBSTITUTED AMINOTHIAZOLES AND THEIR USE AS FUNGICIDES” (BAYER CROPSCIENCE AG, priority 2009, published 2011)
Read-outs that look alike come from different tables or passages of the source. Marks after values point to notes of the source that are not given here. One block for each compound: values may come before it.

Experiment: logP by HPLC on reversed-phase columns (C 18), EEC directive 79/831 Annex V.A8
Type: physicochemical
Conditions: for log P (**): pH 2.7, 0.1% aqueous formic acid and acetonitrile; for chromatographic logP: reversed-phase HPLC column (C 18)
Method: Calibration was carried out using unbranched alkan-2-ones (having from 3 to 16 carbon atoms) with known logP values (the logP values were determined by the retention times using linear interpolation between two successive alkanones).

[1] = LC-MS, neutral range, pH 7.8, 0.001 molar aqueous ammonium bicarbonate and acetonitrile
[2] = acidic range, pH 2.3, 0.1% aqueous phosphoric acid and acetonitrile

SMILES: FC(F)(F)c1cccc(-c2csc(N=C3CCCCN3)n2)c1 [compound 45, N-[(2E/Z)-piperidin-2-ylidene]-4-[3-(trifluoromethyl)phenyl]-1,3-thiazole-2-amine]
- log P (**) (LC-MS, acidic range): 1.97
- log P (***) [1]: 3.55

SMILES: Brc1cccc(-c2csc(N=C3CCCCN3)n2)c1 [compound 46, 4-(3-bromophenyl)-N-[(2E/Z)-piperidin-2-ylidene]-1,3-thiazole-2-amine]
- log P (**) (LC-MS, acidic range): 1.8**

SMILES: CC(C)(C)Cc1cccc(-c2csc(N=C3CCCCN3)n2)c1 [compound 47, 4-[3-(2,2-dimethylpropyl)phenyl]-N-[(2E/Z)-piperidin-2-ylidene]-1,3-thiazole-2-amine]
- log P (**) (LC-MS, acidic range): 2.51
- log P (***) [1]: 4.86

SMILES: Brc1ccccc1-c1csc(N=C2CCCCN2)n1 [compound 48, 4-(2-bromophenyl)-N-[(2E/Z)-piperidin-2-ylidene]-1,3-thiazole-2-amine]
- log P (**) (LC-MS, acidic range): 1.58
- log P (***) [1]: 3.25

SMILES: FC(F)Oc1ccc(-c2csc(N=C3CCCCN3)n2)cc1 [compound 49, 4-[4-(difluoromethoxy)phenyl]-N-[(2E/Z)-piperidin-2-ylidene]-1,3-thiazole-2-amine]
- log P (**) (LC-MS, acidic range): 1.44**

SMILES: FC(F)(F)Oc1ccc(-c2csc(N=C3CCCCN3)n2)cc1 [compound 50, N-[(2E/Z)-piperidin-2-ylidene]-4-[4-(trifluoromethoxy)phenyl]-1,3-thiazole-2-amine]
- log P (**) (LC-MS, acidic range): 1.78**

SMILES: Clc1cccc(Cl)c1-c1csc(N=C2CCCCN2)n1 [compound 51, 4-(2,6-dichlorophenyl)-N-[(2E/Z)-piperidin-2-ylidene]-1,3-thiazole-2-amine]
- log P (**) (LC-MS, acidic range): 1.42**

SMILES: Clc1ncccc1-c1csc(N=C2CCCCN2)n1 [compound 53, 4-(2-chloropyridin-3-yl)-N-[(2E/Z)-piperidin-2-ylidene]-1,3-thiazole-2-amine]
- log P (*) [2]: 0.71*

SMILES: Clc1cc(Cl)cc(-c2csc(N=C3CCCCN3)n2)c1 [compound 55, 4-(3,5-dichlorophenyl)-N-[(2E/Z)-piperidin-2-ylidene]-1,3-thiazole-2-amine]
- log P (***) [1]: 4.21
- log P (*) [2]: 1.59

SMILES: COc1cccc(-c2csc(N=C3CCCCN3)n2)c1 [compound 57, 4-(3-methoxyphenyl)-N-[(2E/Z)-piperidin-2-ylidene]-1,3-thiazole-2-amine]
- log P (***) [1]: 2.76
- log P (*) [2]: 1.19

SMILES: Clc1cccc(-c2csc(N=C3CCCCN3)n2)c1 [compound 59, 4-(3-chlorophenyl)-N-[(2E/Z)-piperidin-2-ylidene]-1,3-thiazole-2-amine]
- log P (**) (LC-MS, acidic range): 1.37**

SMILES: Cc1cccc(-c2csc(N=C3CCCCN3)n2)c1 [compound 60, 4-(3-methylphenyl)-N-[(2E/Z)-piperidin-2-ylidene]-1,3-thiazole-2-amine]
- log P (*) [2]: 1.32*

SMILES: c1ccc(-c2csc(N=C3CCCCN3)n2)nc1 [compound 61, N-[(2E/Z)-piperidin-2-ylidene]-4-(pyridin-2-yl)-1,3-thiazole-2-amine]
- log P (**) (LC-MS, acidic range): 0.27**

SMILES: Cc1cccc(-c2csc(N=C3CCCCN3)n2)n1 [compound 62, 4-(6-methylpyridin-2-yl)-N-[(2E/Z)-piperidin-2-ylidene]-1,3-thiazole-2-amine]
- log P (***) [1]: 2.13
- log P (*) [2]: 0.29

SMILES: c1ccc(-c2ccccc2-c2csc(N=C3CCCCN3)n2)cc1 [compound 64, 4-(biphenyl-2-yl)-N-[(2E/Z)-piperidin-2-ylidene]-1,3-thiazole-2-amine]
- log P (**) (LC-MS, acidic range): 1.82**

SMILES: Cc1cccc(-c2ccccc2-c2csc(N=C3CCCCN3)n2)c1 [compound 65, 4-(3′-methylbiphenyl-2-yl)-N-[(2E/Z)-piperidin-2-ylidene]-1,3-thiazole-2-amine]
- log P (**) (LC-MS, acidic range): 2**

SMILES: Clc1ccc(-c2ccccc2-c2csc(N=C3CCCCN3)n2)cc1Cl [compound 66, 4-(3′,4′-dichloro-biphenyl-2-yl)-N-[(2E/Z)-piperidin-2-ylidene]-1,3-thiazole-2-amine]
- log P (**) (LC-MS, acidic range): 2.2**

SMILES: COc1ccc(-c2ccccc2-c2csc(N=C3CCCCN3)n2)cc1 [compound 67, 4-(4′-methoxybiphenyl-2-yl)-N-[(2E/Z)-piperidin-2-ylidene]-1,3-thiazole-2-amine]
- log P (**) (LC-MS, acidic range): 1.83**

SMILES: COc1ccc(-c2cccc(-c3csc(N=C4CCCCN4)n3)c2)cc1 [compound 68, 4-(4′-methoxybiphenyl-3-yl)-N-[(2E/Z)-piperidin-2-ylidene]-1,3-thiazole-2-amine]
- log P (***) [1]: 3.88
- log P (*) [2]: 1.85

SMILES: Clc1ccccc1Cc1csc(N=C2CCCCN2)n1 [compound 69, 4-(2-chlorobenzyl)-N-[(2E/Z)-piperidin-2-ylidene]-1,3-thiazole-2-amine]
- log P (*) [2]: 1.39*

SMILES: Clc1cccc(Cc2csc(N=C3CCCCN3)n2)c1 [compound 70, 4-(3-chlorobenzyl)-N-[(2E/Z)-piperidin-2-ylidene]-1,3-thiazole-2-amine]
- log P (***) [1]: 3.36
- log P (*) [2]: 1.58

SMILES: Cc1cccc(-c2cccc(-c3csc(N=C4CCCCN4)n3)c2)c1 [compound 71, 4-(3′-methylbiphenyl-3-yl)-N-[(2E/Z)-piperidin-2-ylidene]-1,3-thiazole-2-amine]
- log P (***) [1]: 4.48
- log P (*) [2]: 2.12

SMILES: c1sc(N=C2CCCCN2)nc1CC1CC1 [compound 72, 4-(cyclopropylmethyl)-N-[(2E/Z)-piperidin-2-ylidene]-1,3-thiazole-2-amine]
- log P (***) [1]: 2.73
- log P (*) [2]: 1.07

SMILES: CC(c1ccccc1)c1csc(N=C2CCCCN2)n1 (stereo not shown) [compound 73, 4-(1-phenylethyl)-N-[(2E/Z)-piperidin-2-ylidene]-1,3-thiazole-2-amine]
- log P (***) [1]: 3.27
- log P (*) [2]: 1.51

SMILES: Clc1ccc(Oc2ccccc2-c2csc(N=C3CCCCN3)n2)cc1 [compound 74, 4-[2-(4-chlorophenoxy)phenyl]-N-[(2E/Z)-piperidin-2-ylidene]-1,3-thiazole-2-amine]
- log P (*) [2]: 2.03*

SMILES: Fc1ccc(Oc2ccccc2-c2csc(N=C3CCCCN3)n2)cc1 [compound 75, 4-[2-(4-fluorophenoxy)phenyl]-N-[(2E/Z)-piperidin-2-ylidene]-1,3-thiazole-2-amine]
- log P (*) [2]: 1.87*

The remaining lines, values ahead:

- log P (**) (LC-MS, acidic range): 4.03
- log P (***) [1]: 4.02
- log P (*) [2]: 4.03
SMILES: CC(=O)N1CCCCC1=Nc1nc(-c2cccc(Cl)c2Cl)cs1 [compound 36, 1-[(2E/Z)-2-{[4-(2,3-dichlorophenyl)-1,3-thiazol-2-yl]imino}piperidin-1-yl]ethanone]

- log P (**) (LC-MS, acidic range): 3.63**; 3.63***; 3.63*
- log P (***) [1]: 3.63**; 3.63***; 3.63*
- log P (*) [2]: 3.63**; 3.63***; 3.63*
SMILES: CC(=O)N1CCCCC1=Nc1nc(-c2cccc(F)c2F)cs1 [compound 37, 1-[(2E/Z)-2-{[4-(2,3-difluorophenyl)-1,3-thiazol-2-yl]imino}piperidin-1-yl]ethanone]

- log P (**) (LC-MS, acidic range): 4.25
- log P (***) [1]: 4.23
- log P (*) [2]: 4.25
SMILES: CC(=O)N1CCCCC1=Nc1nc(-c2cccc(C(F)(F)F)c2F)cs1 [compound 38, 1-[(2E/Z)-2-({4-[2-fluoro-3-(trifluoromethyl)phenyl]-1,3-thiazol-2-yl}imino)piperidin-1-yl]ethanone]

- log P (**) (LC-MS, acidic range): 2.96
- log P (***) [1]: 2.95
- log P (*) [2]: 2.96
SMILES: CC(=O)N1CCCCC1=Nc1nc(-c2ccc3c(c2)OCO3)cs1 [compound 39, 1-[(2E/Z)-2-{[4-(1,3-benzodioxol-5-yl)-1,3-thiazol-2-yl]imino}piperidin-1-yl]ethanone]

- log P (**) (LC-MS, acidic range): 3.63
- log P (***) [1]: 3.62
- log P (*) [2]: 3.63
SMILES: CC(=O)N1CCCCC1=Nc1nc(-c2cc(F)cc(F)c2)cs1 [compound 40, 1-[(2E/Z)-2-{[4-(3,5-difluoro-phenyl)-1,3-thiazol-2-yl]imino}piperidin-1-yl]ethanone]

- log P (**) (LC-MS, acidic range): 3.88**; 3.88***; 3.88*
- log P (***) [1]: 3.88**; 3.88***; 3.88*
- log P (*) [2]: 3.88**; 3.88***; 3.88*
SMILES: CC(=O)N1CCCCC1=Nc1nc(-c2ccc(F)c(Cl)c2)cs1 [compound 41, 1-[(2E/Z)-2-{[4-(3-chloro-4-fluorophenyl)-1,3-thiazol-2-yl]imino}piperidin-1-yl]ethanone]

- log P (**) (LC-MS, acidic range): 3.92
- log P (***) [1]: 3.96
- log P (*) [2]: 3.92
SMILES: CC(=O)N1CCCCC1=Nc1nc(-c2ccc(Cl)cc2)c(C)s1 [compound 42, 1-[(2E/Z)-2-{[4-(4-chlorophenyl)-5-methyl-1,3-thiazol-2-yl]imino}piperidin-1-yl]ethanone]

- log P (**) (LC-MS, acidic range): 3.37**; 3.37***; 3.37*
- log P (***) [1]: 3.37**; 3.37***; 3.37*
- log P (*) [2]: 3.37**; 3.37***; 3.37*
SMILES: CC(=O)N1CCCCC1=Nc1nc(-c2cccc(F)c2F)c(C)s1 [compound 43, 1-[(2E/Z)-2-{[4-(2,3-difluorophenyl)-5-methyl-1,3-thiazol-2-yl]imino}piperidin-1-yl]ethanone]

- log P (**) (LC-MS, acidic range): 1.7
- log P (***) [1]: 3.2
- log P (*) [2]: 1.7
SMILES: Cc1sc(N=C2CCCCN2)nc1-c1cccc(F)c1F [compound 44, 4-(2,3-difluorophenyl)-5-methyl-N-[(2E/Z)-piperidin-2-ylidene]-1,3-thiazole-2-amine]

- chromatographic logP (LC-MS, neutral range, pH 7.8, 0.001 molar aqueous ammonium bicarbonate and acetonitrile, read-out: log P (***)): 3.93
- chromatographic logP (acidic range, pH 2.3, 0.1% aqueous phosphoric acid and acetonitrile, read-out: log P (*)): 1.68
SMILES: Clc1ccc(-c2csc(N=C3CCCCN3)n2)cc1Cl [compound 52, 4-(3,4-dichlorophenyl)-N-[(2E/Z)-piperidin-2-ylidene]-1,3-thiazole-2-amine]

- log P (*) [2]: 1.23*
SMILES: Fc1ccc(-c2csc(N=C3CCCCN3)n2)cc1 [compound 54, 4-(4-fluorophenyl)-N-[(2E/Z)-piperidin-2-ylidene]-1,3-thiazole-2-amine]

- log P (*) [2]: 1.18*
SMILES: COc1ccc(-c2csc(N=C3CCCCN3)n2)cc1 [compound 56, 4-(4-methoxyphenyl)-N-[(2E/Z)-piperidin-2-ylidene]-1,3-thiazole-2-amine]

- log P (***) [1]: 2.38
- log P (*) [2]: 0.94
SMILES: Clc1ccc(-c2csc(N=C3CCCCN3)n2)cn1 [compound 63, 4-(6-chloropyridin-3-yl)-N-[(2E/Z)-piperidin-2-ylidene]-1,3-thiazole-2-amine]
